Results from patent publication US8940865B2, “Myocardial peptide, preparation method and uses thereof” (Dalian Zhen-Ao Pharmaceutical Co, Ltd., priority 2008, dated 2015).

Assays:
[1] = system: ischemia/reperfusion damaged rat; experiment: Preventive administration, ischemia/reperfusion (LAD ligation) rat model; type: in vivo, SD rat; conditions: preventive i.v. 30 min before ligation; for MIS (myocardial infarct size): ischemic area weight/whole heart weight; for CK / LDH / MDA / SOD: rat serum
Procedure: 70 SD rats (250˜300 g per rat) were taken, wherein, 60 rats were divided into 6 groups evenly and randomly according to weight, every 10 of each group, the remains are kept for replacement of dead animals of each group.
Normal Control Group: carrying out sham operation, threading a silk suture through the left anterior descending coronary artery (LAD) without ligation;
Model Group: intravenous injecting saline solution of 5 ml/kg 30 minutes before ligation, and the preparation of hypoxia/reoxygenation model is the same as Normal Control Group;
Positive Control Group: intravenous injecting Verapamil of 1 ml/kg 30 min before ligation, preparation of the hypoxia/reoxygenation model is the same as Normal Control Group. […]
Preparation of the Model:
(§1) Intraperitoneal injecting 6% Urethane with 20 ml/kg to anaesthetize the animal, fixing the animal on operating table in supine position; being connected with the electrocardiograph to detect the limb II lead electrocardiogram, tracheal intubating and connecting the animal with respirators, taking continuous positive end-expiratory pressure with tidal volume of 6 ml/200 g, frequency of 55/min and breathing ratio of 2:1. Carrying out thoracotomy on the gap between the forth and the fifth ribs of the left border of sternum, separating the ribs and removing the pericardium. Ligating at the left anterior descending coronary artery by using 6/0 silk suture by the sign of left auricle lower margin, and setting a piece of polyethylene pipe with diameter of 1 mm between the ligation silk suture and blood vessel. Ligating the silk suture to press the left anterior descending coronary artery by the polyethylene pipe and cause myocardial ischemia. Taking part of myocardium becoming grey and electrocardiogram S-T segment raising as the sign of that the left anterior descending coronary artery is ligated successfully. Taking out the polyethylene pipe carefully to cause the reperfusion. Verifying the success of reoxygenation by reactive hyperemia of ischemia area and the descending of the raised S-T segment by ½. Reoxygenation for 30 minutes, then sampling blood from abdominal aorta to prepare serum which is used to measure the biochemical index (measuring the content of CK, LDH, MDA, SPD according to the Reagent kits Instruction).
(§2) Rat's heart was taken and after being blooded, the residual blood in the ventricle was cleaned by normal saline to weight the weight of whole heart. Fat was removed, the heart was crosscut into 4˜5 pieces and was put into a tube, to be carried out NBT dye at 37° C. (dying the normal tissue rather than the ischemic tissue), taking photographs. The ischemic area of the myocardium was cut to take a weighing, and then the myocardial infarct size (MIS) was calculated by the ratio of weight of the ischemic area of the myocardium to whole heart weight, which was present by percentage.

[2] = system: ischemia/reperfusion damaged rat; experiment: Therapeutic administration, ischemia/reperfusion (LAD ligation) rat model; type: in vivo, SD rat; conditions: therapeutic i.v. 5 minutes after ligation; for CK / LDH / MDA / SOD: rat serum
Procedure: as §1, §2
The drug was intravenously injured on the tail 5 minutes after ligation of LAD, then reperfusion was carried out for 30 min 30 minutes after ligation of LAD. Heart was taken after sampling blood from abdominal aorta. The biochemical index and the myocardial infarction size were measure by using the above method.

KGAWSNVLRGMGGAF [CMPC, Lys-Gly-Ala-Trp-Ser-Asn-Val-Leu-Arg-Gly-Met-Gly-Gly-Ala-Phe]
MIS (myocardial infarct size) ([1]; Dosage 0.2 mg/kg): 4.67 ± 0.74 %
MIS (myocardial infarct size) ([1]; Dosage 0.6 mg/kg): 4.17 ± 0.62 %
MIS (myocardial infarct size) ([1]; Dosage 1.8 mg/kg): 3.47 ± 1.08 %
CK ([1]; Dosage 0.2 mg/kg): 2.238 ± 0.274 U/ml
LDH ([1]; Dosage 0.2 mg/kg): 7555.34 ± 600.16 U/L
MDA ([1]; Dosage 0.2 mg/kg): 4.642 ± 0.978 nmol/mL
SOD ([1]; Dosage 0.2 mg/kg): 134.85 ± 12.55 U/ml
CK ([1]; Dosage 0.6 mg/kg): 2.172 ± 0.329 U/ml
LDH ([1]; Dosage 0.6 mg/kg): 7531.58 ± 414.64 U/L
MDA ([1]; Dosage 0.6 mg/kg): 4.847 ± 0.570 nmol/mL
SOD ([1]; Dosage 0.6 mg/kg): 130.43 ± 10.55 U/ml
CK ([1]; Dosage 1.8 mg/kg): 2.045 ± 0.358 U/ml
LDH ([1]; Dosage 1.8 mg/kg): 7453.80 ± 366.11 U/L
MDA ([1]; Dosage 1.8 mg/kg): 4.371 ± 0.47 nmol/mL
SOD ([1]; Dosage 1.8 mg/kg): 135.67 ± 8.64 U/ml
CK ([2]; Dosage 0.2 mg/kg): 2.026 ± 0.532 U/ml
LDH ([2]; Dosage 0.2 mg/kg): 7763.83 ± 770.70 U/L
MDA ([2]; Dosage 0.2 mg/kg): 4.878 ± 0.430 nmol/mL
SOD ([2]; Dosage 0.2 mg/kg): 140.59 ± 20.28 U/ml
CK ([2]; Dosage 0.6 mg/kg): 1.748 ± 0.573 U/ml
LDH ([2]; Dosage 0.6 mg/kg): 7034.59 ± 1167.17 U/L
MDA ([2]; Dosage 0.6 mg/kg): 4.862 ± 0.468 nmol/mL
SOD ([2]; Dosage 0.6 mg/kg): 145.41 ± 10.56 U/ml
CK ([2]; Dosage 1.8 mg/kg): 1.707 ± 0.332 U/ml
LDH ([2]; Dosage 1.8 mg/kg): 7233.69 ± 297.69 U/L
MDA ([2]; Dosage 1.8 mg/kg): 4.685 ± 0.714 nmol/mL
SOD ([2]; Dosage 1.8 mg/kg): 143.41 ± 12.14 U/ml
MIS (myocardial infarct size) ([2]; Dosage 0.2 mg/kg): 3.95 ± 0.97 %
MIS (myocardial infarct size) ([2]; Dosage 0.6 mg/kg): 4.20 ± 0.78 %
MIS (myocardial infarct size) ([2]; Dosage 1.8 mg/kg): 3.68 ± 1.39 %
